From patent publication US10548894B2, “Combination therapy” (Array BioPharma Inc., priority 2013, dated 2020)

Legend:
[1] = tested on: WM-266-4 cells expressing mutant NRASQ61K; test: ATP-based CTG (Cell Titer Glo) cell viability assay, 72 h; settings: Homo sapiens, WM-266-4 NRASQ61K, single agent
Protocol: (§1) Compound stocks are prepared in DMSO at a final concentration of 10 mM.
(§2) A-375 and WM-266-4 cells were purchased from American Type Culture Collection (ATCC). The A-375 cells were cultured in DMEM medium (ATCC) and the WM-266-4 cells were cultured in EMEM medium (ATCC) both supplemented with 10% fetal bovine serum (Gibco) and incubated at 37° C./5% CO2. The cell lines engineered to express commonly occurring alleles indicative of resistance were acquired from Novartis-Emeryville. These resistant models include, A-375 cells expressing mutant MEK1P124L, truncated p61-BRAFV600E, or mutant NRASQ61K, and WM-266-4 cells expressing mutant MEK1C121S, truncated p61-BRAFV600E, or mutant NRASQ61K. These cells were cultured in the appropriate parental medium with selection marker G418 and in the presence of 5 uM LFE158 (MEK mutants) or LIH720 (truncated p61-BRAFV600E).
(§3) For screening, cells were seeded in 80 ul of medium in 384-well plates (Thermo Scientific, cat#4332) at 500 (A-375) or 750 (WM-266-4) cell densities per well using a MultiDrop Combi (Thermo-Fisher) with an 8-channel standard cassette. To promote an even distribution of cells across the entire well, cells were briefly centrifuged at 1000 RPM and incubated at room temperature 30 minutes. All plates were incubated at 37° C., 5% CO2 for 24 h prior to compound addition. Compound stock was freshly prepared in the appropriate culture medium, and added using a PAA robot equipped with a 200n1 pin tool. In a minimum of three replicate wells, single agent and combination effects after 72 hours, were assessed by both quantification of cellular ATP levels via Cell Titer Glo (Promega) according to the manufacturer's protocol and by microscopy imaging. For imaging, cells were fixed to the plates and permeabilized with a solution of 10% PFA, 0.3% TX-100 in PBS via a WellMate dispenser with controlled dispensing speeds. Cell nuclei were stained with Hoechst 33342 (H3570, Invitrogen), and all necessary washing steps were performed by a BioTek washer. […]

[2] = tested on: A-375 cells expressing truncated p61-BRAFV600E; test: as above; settings: Homo sapiens, A-375 p61 BRafV600E, single agent
Protocol: as §1, §2, §3

[3] = tested on: WM-266-4 cells expressing truncated p61-BRAFV600E; test: as above; settings: Homo sapiens, WM-266-4 p61 BRafV600E, single agent
Protocol: as §1, §2, §3

WM-266-4 cells = test: as above; settings: Homo sapiens, WM-266-4 parent, single agent
Protocol: (§4) Compound stocks are prepared in DMSO at a final concentration of 10 mM. Working stocks are serially diluted in the appropriate cell culture medium in 3-fold increments to achieve final assay concentrations ranging from 2.7 μM to 1.2 nM.
as §2
(§5) For screening, cells were seeded in 80 ul of medium in 384-well plates (Thermo Scientific, cat#4332) at 500 (A-375) or 750 (WM-266-4) cell densities per well using a MultiDrop Combi (Thermo-Fisher) with an 8-channel standard cassette. To promote an even distribution of cells across the entire well, cells were briefly centrifuged at 1000 RPM and incubated at room temperature 30 minutes. All plates were incubated at 37° C., 5% CO2 for 24 h prior to compound addition. Compound stock was freshly prepared in the appropriate culture medium, and added using a PAA robot equipped with a 200n1 pin tool. In a minimum of three replicate wells, single agent and combination effects after 72 hours, were assessed by both quantification of cellular ATP levels via Cell Titer Glo (Promega) according to the manufacturer's protocol and by microscopy imaging. For imaging, cells were fixed to the plates and permeabilized with a solution of 10% PFA, 0.3% TX-100 in PBS via a WellMate dispenser with controlled dispensing speeds. Cell nuclei were stained with Hoechst 33342 (H3570, Invitrogen), and all necessary washing steps were performed by a BioTek washer.
(§6) Data comprised triplicate measurements for each treatment (compound) condition, 42 replicates of DMSO-treated wells, and duplicates of Staurosporin-treated wells. The data was normalized to the median of the DMSO measurements and summarized by calculating the median of the triplicates. Data was imported into Chalice to calculate compound synergies.

A-375 cells = test: as above; settings: Homo sapiens, A-375 parent, single agent
Protocol: as §4, §2, §5, §6

[4] = tested on: WM-266-4 cells expressing mutant MEK1C121S; test: as above; settings: Homo sapiens, WM-266-4 MEK1C121S, single agent
Protocol: as §4, §2, §5, §6

[5] = tested on: A-375 cells expressing mutant NRASQ61K; test: as above; settings: Homo sapiens, A-375 NRASQ61K, single agent
Protocol: as §4, §2, §5, §6

[6] = tested on: A-375 cells expressing mutant MEK1P124L; test: as above; settings: Homo sapiens, A-375 MEK1P124L, single agent
Protocol: as §4, §2, §5, §6

SW1417 = test: 72 hr cell titer Glo proliferation assay, BRAFV600E mutant CRC cell lines; assay type: cell-based; settings: Homo sapiens, SW1417, single agent
Protocol: (§7) Single agent and combinatorial effects on proliferation of inhibitors of RAF (Compound of Formula (I)) and PIK3Ca (Compound X) kinases in seven BRAF-mutant CRC-derived cell lines. All cell lines express the BRAFV600E protein. Cells harboring known or putative activating mutations in the PI3Kα gene are marked with a (*) and cells with PTEN loss marked with a (#). Cell proliferation was measured in 72 hr cell titer Glo™ assays and all results supplied are the result of at least triplicate measurements. Shown are single agent IC50 values for the Compound of Formula (I) and Compound X. Synergy score (SS) measurements as well as the combination index (C150) at the 50% effect level are given for each combination) in Table 6. Interactions were deemed synergistic when SS values were ≥2.0 and CI values were ≤0.5. Interactions were deemed additive/synergistic when either SS values were ≥2.0 but CI values were >0.5 or SS values were <2.0 but CI values were ≤0.5. Interactions where termed additive when SS values were <2.0 and CI values were >0.5. Synergy calls are given in the “effect description” columns.

RKO = test: as above; assay type: cell-based; settings: Homo sapiens, RKO (PI3Kα mutation), single agent
Protocol: as §7

HT-29 = test: as above; assay type: cell-based; settings: Homo sapiens, HT-29 (PI3Kα mutation), single agent
Protocol: as §7

OUMS-23 = test: as above; assay type: cell-based; settings: OUMS-23 (PTEN loss), single agent
Protocol: as §7

SNU-C5 = test: as above; assay type: cell-based; settings: SNU-C5 (PI3Kα mutation), single agent
Protocol: as §7

CL-34 = test: as above; assay type: cell-based; settings: CL-34, single agent
Protocol: as §7

COLO 205 = test: as above; assay type: cell-based; settings: Homo sapiens, COLO 205, single agent
Protocol: as §7

LS411N = test: as above; assay type: cell-based; settings: Homo sapiens, LS-411N, single agent
Protocol: as §7

For `COC(=O)N[C@@H](C)CNc1nccc(-c2cn(C(C)C)nc2-c2cc(Cl)cc(NS(C)(=O)=O)c2F)n1` [Compound of Formula (I)], which IC50 [1] is on record?
The IC50 was 1120 nM.

And the IC50 [2]?
The IC50 was 576 nM.

And the IC50 [3]?
The IC50 was 906 nM.

And the IC50 (WM-266-4 cells)?
Its IC50 is 2 nM.

What about the IC50 (A-375 cells) of the same compound?
The IC50 was 4 nM.

And the IC50 [4]?
The IC50 was 35 nM.

What about the IC50 [5] of the same compound?
Its IC50 is 134 nM.

And the IC50 [6]?
The IC50 was 333 nM.

And the IC50 (SW1417)?
Its IC50 is 235 nM.

What about the IC50 (RKO) of the same compound?
The IC50 was 1960 nM.

What about the IC50 (HT-29) of the same compound?
Its IC50 is 49 nM.

What about the IC50 (OUMS-23) of the same compound?
The IC50 was over 2700 nM.

What about the IC50 (SNU-C5) of the same compound?
Its IC50 is over 2700 nM.

What about the IC50 (CL-34) of the same compound?
The IC50 was 30 nM.

And the IC50 (COLO 205)?
Its IC50 is 5 nM.

What about the IC50 (LS411N) of the same compound?
The IC50 was 18 nM.
